Test results: PubChem BioAssay AID248 (DTP/NCI, 2004)
Inconclusive results and toxic doses are left out. Rule as the data show it: active = T/C of 150% or more; inactive = T/C below 125%.

System: L1210 leukemia ip in BDF1 mice, survival T/C
Test: NCI In Vivo Anticancer Drug Screen. Data for tumor model L1210 Leukemia (intraperitoneal) in B6D2F1 (BDF1) mice
Conditions: endpoint: mean survival time, higher = longer survival
In short: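 Mice bearing the transplanted tumor received compound or vehicle. Survival of the treated group was divided by that of the vehicle-treated control group to give the ratio.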

[1] = dose: 100.0 mg/kg/injection, schedule: Q01DX009 (ip), vehicle: Klucel (hydroxypropylcellulose) (HPC)
[2] = dose: 100.0 mg/kg/injection, schedule: Q04DX002 (ip), vehicle: Klucel (hydroxypropylcellulose) (HPC)
[3] = dose: 200.0 mg/kg/injection, schedule: Q04DX002 (ip), vehicle: Klucel (hydroxypropylcellulose) (HPC)
[4] = dose: 400.0 mg/kg/injection, schedule: Q04DX002 (ip), vehicle: Klucel (hydroxypropylcellulose) (HPC)
[5] = dose: 50.0 mg/kg/injection, schedule: Q01DX001 (ip), vehicle: saline
[6] = dose: 100.0 mg/kg/injection, schedule: Q01DX001 (ip), vehicle: saline
[7] = dose: 200.0 mg/kg/injection, schedule: Q01DX001 (ip), vehicle: saline
[8] = dose: 400.0 mg/kg/injection, schedule: Q01DX001 (ip), vehicle: saline
[9] = dose: 200.0 mg/kg/injection, schedule: Q01DX009 (ip), vehicle: Klucel (hydroxypropylcellulose) (HPC)
[10] = dose: 400.0 mg/kg/injection, schedule: Q01DX009 (ip), vehicle: Klucel (hydroxypropylcellulose) (HPC)
[11] = dose: 100.0 mg/kg/injection, schedule: Q04DX003 (ip), vehicle: Klucel (hydroxypropylcellulose) (HPC)
[12] = dose: 200.0 mg/kg/injection, schedule: Q04DX003 (ip), vehicle: Klucel (hydroxypropylcellulose) (HPC)
[13] = dose: 400.0 mg/kg/injection, schedule: Q04DX003 (ip), vehicle: Klucel (hydroxypropylcellulose) (HPC)
[14] = dose: 100.0 mg/kg/injection, schedule: Q01DX009 (ip), vehicle: saline with Tween-80
[15] = dose: 100.0 mg/kg/injection, schedule: Q04DX003 (ip), vehicle: saline with Tween-80
[16] = dose: 200.0 mg/kg/injection, schedule: Q04DX003 (ip), vehicle: saline with Tween-80
[17] = dose: 400.0 mg/kg/injection, schedule: Q04DX003 (ip), vehicle: saline with Tween-80

Measured: T/C

CC1(c2ccccc2)CCC(NN=C(N)N)=NC1 (stereo not given)
inactive: dose: 15.0 mg/kg/injection, schedule: Q01DX Z (ip), vehicle: methylcellulose (MC) 95 % of control | dose: 30.0 mg/kg/injection, schedule: Q01DX Z (oral), vehicle: methylcellulose (MC) 97 % of control | dose: 60.0 mg/kg/injection, schedule: Q01DX Z (ip), vehicle: methylcellulose (MC) 101 % of control | dose: 60.0 mg/kg/injection, schedule: Q01DX Z (oral), vehicle: methylcellulose (MC) 91 % of control | dose: 120.0 mg/kg/injection, schedule: Q01DX Z (ip), vehicle: methylcellulose (MC) 95 % of control | dose: 120.0 mg/kg/injection, schedule: Q01DX Z (oral), vehicle: methylcellulose (MC) 101 % of control | dose: 240.0 mg/kg/injection, schedule: Q01DX Z (ip), vehicle: methylcellulose (MC) 93 % of control | dose: 240.0 mg/kg/injection, schedule: Q01DX Z (oral), vehicle: methylcellulose (MC) 93 % of control | dose: 375.0 mg/kg/injection, schedule: Q01DX Z (oral), vehicle: methylcellulose (MC) 89 % of control | dose: 420.0 mg/kg/injection, schedule: Q01DX Z (ip), vehicle: methylcellulose (MC) 93 % of control | dose: 500.0 mg/kg/injection, schedule: Q01DX Z (oral), vehicle: methylcellulose (MC) 86 % of control | dose: 600.0 mg/kg/injection, schedule: Q01DX Z (ip), vehicle: methylcellulose (MC) 92 % of control | dose: 625.0 mg/kg/injection, schedule: Q01DX Z (oral), vehicle: methylcellulose (MC) 93 % of control

CC(N)CCC(C)(C)O (stereo not given)
inactive: dose: 50.0 mg/kg/injection, schedule: Q01DX009 (ip), vehicle: saline 93 % of control | dose: 100.0 mg/kg/injection, schedule: Q01DX009 (ip), vehicle: saline 90 % of control

CC12CCC3C(CCC4=CC(=O)C(C(O)(C(F)(F)F)C(F)(F)F)CC43C)C1CC(C(O)(C(F)(F)F)C(F)(F)F)C2=O (stereo not given)
inactive: dose: 100.0 mg/kg/injection, schedule: Q01DX001 (sc), vehicle: steriod suspending solution 97 % of control | dose: 200.0 mg/kg/injection, schedule: Q01DX001 (sc), vehicle: steriod suspending solution 103 % of control | dose: 400.0 mg/kg/injection, schedule: Q01DX001 (sc), vehicle: steriod suspending solution 101 % of control

CCCCCCCCOC(=O)Nc1ccccc1
inactive: dose: 25.0 mg/kg/injection, schedule: Q01DX009 (ip), vehicle: Klucel (hydroxypropylcellulose) (HPC) 100 % of control | dose: 50.0 mg/kg/injection, schedule: Q01DX009 (ip), vehicle: Klucel (hydroxypropylcellulose) (HPC) 94 % of control | [1] 100 % of control

C(=N/Sc1ccccc1)/c1ccccc1
inactive: [2] 98 % of control | [3] 98 % of control | [4] 112 % of control

Nc1c(Cl)ncnc1Nc1ccc(C(=O)O)cc1
inactive: [5] 96 % of control | [6] 98 % of control | [7] 96 % of control | [8] 96 % of control

Nc1nc(N)c(-c2ccc(Cl)cc2)c(/C=C/c2ccc([N+](=O)[O-])cc2)n1
inactive: [5] 104 % of control | [6] 93 % of control | [7] 93 % of control | [8] 96 % of control

CN(Cc1ccccc1)C(=O)c1ccc(Cl)cc1
inactive: [1] 111 % of control | [2] 101 % of control | [9] 105 % of control | [10] 100 % of control | [4] 89 % of control

COc1ccc(/C=C(\S)C(=O)O)cc1
inactive: [6] 96 % of control | [7] 118 % of control | dose: 1040.0 mg/kg/injection, schedule: Q01DX001 (ip), vehicle: saline 111 % of control

O=[N+]([O-])c1ccc(/C=C/c2ccccc2Cl)cc1
inactive: [1] 97 % of control | [11] 109 % of control | [9] 97 % of control | [12] 104 % of control | [10] 101 % of control | [13] 107 % of control

CCCCCCCCCCCCCCCC(=O)N(CCC#N)c1ccc(N(CCC#N)C(=O)CCCCCCCCCCCCCCC)cc1
inactive: dose: 100.0 mg/kg/injection, schedule: Q01DX001 (ip), vehicle: saline with Tween-80 93 % of control | [14] 86 % of control | [15] 104 % of control | dose: 200.0 mg/kg/injection, schedule: Q01DX001 (ip), vehicle: saline with Tween-80 98 % of control | dose: 200.0 mg/kg/injection, schedule: Q01DX009 (ip), vehicle: saline with Tween-80 88 % of control | [16] 94 % of control | dose: 400.0 mg/kg/injection, schedule: Q01DX001 (ip), vehicle: saline with Tween-80 94 % of control | dose: 400.0 mg/kg/injection, schedule: Q01DX009 (ip), vehicle: saline with Tween-80 86 % of control | [17] 93 % of control

CCOC(=O)C(Cc1ccc(OCc2ccccc2)c(OCc2ccccc2)c1)(NC(C)=O)C(=O)OCC
inactive: dose: 100.0 mg/kg/injection, schedule: Q04DX003 (ip), vehicle: other 102 % of control | dose: 200.0 mg/kg/injection, schedule: Q04DX003 (ip), vehicle: other 100 % of control | dose: 400.0 mg/kg/injection, schedule: Q04DX003 (ip), vehicle: other 98 % of control

O=C(Nc1cccc(C2=NCCN2)c1)Nc1cc(C(=O)Nc2ccc(C3=NCCN3)cc2)ccc1C(=O)Nc1ccc(C2=NCCN2)cc1
active: dose: 7.5 mg/kg/injection, schedule: Q01DX Z (ip), vehicle: saline 161 % of control
inactive: dose: 1.88 mg/kg/injection, schedule: Q01DX Z (ip), vehicle: saline 121 % of control | dose: 3.75 mg/kg/injection, schedule: Q01DX Z (ip), vehicle: saline 123 % of control | dose: 3.75 mg/kg/injection, schedule: Q01DX Z (oral), vehicle: saline 98 % of control | dose: 7.5 mg/kg/injection, schedule: Q01DX Z (oral), vehicle: saline 104 % of control | dose: 15.0 mg/kg/injection, schedule: Q01DX Z (oral), vehicle: saline 103 % of control | dose: 30.0 mg/kg/injection, schedule: Q01DX Z (oral), vehicle: saline 101 % of control | dose: 62.5 mg/kg/injection, schedule: Q01DX010 (oral), vehicle: saline 101 % of control | dose: 125.0 mg/kg/injection, schedule: Q01DX010 (oral), vehicle: saline 108 % of control | dose: 250.0 mg/kg/injection, schedule: Q01DX010 (oral), vehicle: saline 105 % of control

CC1(C)OC2OC(C(O)CN3CC3)C(O)C2O1 (stereo not given)
inactive: dose: 24.6 mg/kg/injection, schedule: Q01DX Z (ip), vehicle: methylcellulose (MC) 104 % of control | dose: 37.0 mg/kg/injection, schedule: Q01DX Z (ip), vehicle: methylcellulose (MC) 107 % of control | dose: 56.0 mg/kg/injection, schedule: Q01DX Z (ip), vehicle: methylcellulose (MC) 99 % of control | dose: 84.0 mg/kg/injection, schedule: Q01DX Z (ip), vehicle: methylcellulose (MC) 107 % of control

CC(C)(O)C(O)CC1=C(O)c2ccccc2C(=O)C1=O (stereo not given)
inactive: dose: 100.0 mg/kg/injection, schedule: Q01DX001 (ip), vehicle: water 106 % of control | dose: 200.0 mg/kg/injection, schedule: Q01DX001 (ip), vehicle: water 97 % of control | dose: 400.0 mg/kg/injection, schedule: Q01DX001 (ip), vehicle: water 93 % of control

CCOc1nc(N)nc2c1-c1ccccc1CC2
inactive: [15] 97 % of control | [16] 97 % of control | [17] 90 % of control

O=S(=O)(CCCCl)Nc1ccccn1
inactive: dose: 100.0 mg/kg/injection, schedule: Q04DX002 (ip), vehicle: saline with Tween-80 100 % of control | dose: 200.0 mg/kg/injection, schedule: Q04DX002 (ip), vehicle: saline with Tween-80 93 % of control | dose: 400.0 mg/kg/injection, schedule: Q04DX002 (ip), vehicle: saline with Tween-80 93 % of control

c1ccc(C2SCCSCCS2)cc1
inactive: dose: 25.0 mg/kg/injection, schedule: Q01DX009 (ip), vehicle: saline with Tween-80 92 % of control | dose: 50.0 mg/kg/injection, schedule: Q01DX009 (ip), vehicle: saline with Tween-80 86 % of control | [14] 86 % of control | [11] 102 % of control | [12] 100 % of control | [13] 92 % of control

Cc1ccc(C(=O)N/N=C/c2ccc(Cl)cc2Cl)cc1
inactive: [2] 100 % of control | [3] 95 % of control | [4] 95 % of control
